From publication PMC12291850, “Morin Flavonoid Interaction with Albumin and Its Nanoparticle Conjugation: An Efficient Antioxidant Vehicle for Nutraceuticals” (Antioxidants, 2025)
pKd: −log10 of the molar value. One block for each compound: values may come before it.

What was measured:
[1] = system: human serum albumin (HSA); settings: fluorescence studies; cited from earlier work
[2] = biological target: T1, bovine serum albumin (BSA) (Bos taurus, UniProt P02769); experiment: Fluorescence quenching of BSA by flavonoids (Stern–Volmer, binding equation, van't Hoff); settings: for Stern–Volmer quenching constant (Ksv): excitation 295 nm; for ΔG°: morin: 293–310 K; for Kd: read-out: binding constant (Ka) (converted)
T1 construct: purchased Merck (Darmstadt, Germany)
Method: Fluorescence quenching spectroscopy was employed to investigate the interaction between bovine serum albumin (BSA) and selected flavonoids, including morin. All measurements were performed using a spectrofluorometer under controlled temperature conditions (25 °C).
To quantify the quenching effect upon encapsulation, the Stern–Volmer equation was applied (Equation (1)):F0/F = 1 + Ksv [Q](1) where F0 and F are the fluorescence intensities of BSA in the absence and presence of quencher (flavonoid), respectively, Ksv is the Stern–Volmer quenching constant, and [Q] is flavonoid concentration.
The binding constant (Ka) and the number of binding sites (n) were calculated using the logarithmic form of the binding equation (Equation (2)):log[(F0 − F)/F] = log Ka + n log[Q](2)
Thermodynamic parameters—Gibbs free energy change (ΔG°) (Equation (3)), enthalpy change (ΔH°), and entropy change (ΔS°)—were determined from the temperature dependence of the binding constant using the van’t Hoff equation (Equation (4)):ΔG° = ΔH° − TΔS°(3) ln Ka = −ΔH°/RT + ΔS°/R(4)

[3] = biological target: T1, bovine serum albumin (BSA); experiment: Surface plasmon resonance (SPR) analysis of albumin–morin interaction; assay type: binding
Method: Gold-coated sensor chips were first cleaned and subsequently modified with a self-assembled monolayer (SAM) of 4-mercaptobenzoic acid (4-MBA) to introduce carboxyl functional groups on the sensor surface.
Non-reacted sites were blocked with 1 M ethanolamine (pH 8.5).
Sensorgrams were recorded in real time, and binding responses were referenced against control channels and buffer-only injections.
Equilibrium binding data were analyzed using Langmuir isotherm models to estimate the apparent association constant (Ka), dissociation constant (Kd), and maximum binding response (Rmax). Data fitting and kinetic analysis were performed using the instrument’s integrated software suite.

[4] = Photolysis and photooxidation (hydroxyl radical from H2O2 under UV 254 nm) of morin, HPLC-DAD; assay type: physicochemical
Method: Morin was incorporated into the system by adding small aliquots of a stock solution in ethanol, ensuring the final ethanol concentration remained below 2% (v/v) to avoid solvent-induced effects on photoreactivity. Oxidative conditions were simulated by the addition of hydrogen peroxide to a final concentration of 0.5% (w/v), serving as a source of hydroxyl radicals upon UV activation. Each reaction mixture was vortexed to ensure homogeneity and subsequently transferred into 5 mL double-jacketed quartz cuvettes. The outer surface of each cuvette was coated with opaque black paint to prevent ambient light interference, except for a centrally located circular window (1 cm diameter) designed to permit focused irradiation. A circulating water bath maintained the cuvette temperature at 20 ± 0.5 °C. Photolysis was carried out using a high-power mercury UV lamp emitting at 254 nm. […] Quantitative analysis of morin degradation and spectral changes associated with hydroxyl radical attack was performed using high-performance liquid chromatography with diode array detection (HPLC-DAD) and UV–visible spectrophotometry.
(§1) A high-performance liquid chromatography (HPLC) method was developed and validated to quantify morin for the subsequent evaluation of encapsulation efficiency, drug loading capacity, physicochemical stability, photodegradation under ultraviolet (UV) exposure, and hydroxyl radical scavenging activity. Chromatographic analyses were conducted using a Shimadzu LC-20AT HPLC system (Shimadzu, Kyoto, Japan), equipped with a SIL-20A autosampler and an SPD-M20A photodiode array (PDA) detector. Separation was achieved on a C18 ODS Hypersil column (250 mm × 4.6 mm, 5 μm particle size; Agilent Technologies, Santa Clara, CA, USA). The mobile phase consisted of acetonitrile and 0.1% trifluoroacetic acid in water (30:70, v/v), delivered under isocratic conditions at a flow rate of 1.0 mL/min. The injection volume was set at 20 μL. Morin detection was performed at a wavelength of 360 nm using the PDA detector. The method was optimized to ensure adequate peak resolution, retention time reproducibility, and sensitivity for low-concentration samples. This analytical approach was employed throughout the study to monitor morin concentration in various experimental settings, including nanoparticle formulations and stability assays.

[5] = biological target: T1, bovine serum albumin (BSA); experiment: Circular dichroism of BSA with morin under oxidative conditions; settings: morin 10 and 20 µM, UV irradiation and hydrogen peroxide
Method: Measurements were performed using a J-1500 CD spectropolarimeter (JASCO, Tokyo, Japan) equipped with a temperature-controlled cell holder maintained at 25 °C. Spectra were acquired using a 0.1 cm path length quartz cuvette. Each spectrum represents the average of three consecutive scans, recorded at a scanning speed of […] with a response time of 1 s. […] For oxidative conditions, hydrogen peroxide was added to a final concentration of 0.5% (w/v) to promote hydroxyl radical generation. All solutions were prepared in 10 mM phosphate buffer at pH 7.4 and allowed to equilibrate for 15 min before measurement. Spectra were corrected by subtracting the baseline of the corresponding buffer or hydrogen peroxide control solution.

[6] = Encapsulation efficiency in BSA nanoparticles (desolvation, HPLC of supernatant); assay type: physicochemical
Method: as §1
The impact of other antioxidant molecules (ellagic acid and tocopherol succinate) on the behavior of morin encapsulated in BSA nanoparticles in an intestinal environment was assessed through in vitro loading and release experiments. […] Then, ethanol was added dropwise under constant stirring, followed by the addition of 20 µL of an 8% glutaraldehyde solution [25]. The final volume of the mixture was adjusted to 10 mL. After 24 h, the nanoparticles were collected by centrifugation (13,500 rpm, 20 min, and 25 °C) and washed with water. The supernatant was separated for further analysis. To incorporate ellagic acid or tocopherol succinate, each compound—either individually or in combination—was included in the ethanol phase during the dropwise addition. The rest of the procedure remained unchanged. The encapsulation efficiency (%EE) was calculated using Equation (5):(5) %EE=Mi−Mf/Mi×100 where Mi and Mf correspond to the initial amount of morin added during the loading process and the free morin in the supernatant, respectively.

[7] = parameters: method as in doi:10.1039/C6RA20441D; settings: cited from earlier work
[8] = Encapsulation efficiency in BSA nanoparticles (desolvation, HPLC of supernatant); assay type: physicochemical; settings: unchanged when co-loaded with morin
[9] = cited from earlier work
[10] = BSA fluorescence quenching, 25 °C
[11] = flavonoid–BSA complex, van't Hoff analysis
[12] = BSA nanoparticles prepared via desolvation

T1 sequence (P02769 25-607): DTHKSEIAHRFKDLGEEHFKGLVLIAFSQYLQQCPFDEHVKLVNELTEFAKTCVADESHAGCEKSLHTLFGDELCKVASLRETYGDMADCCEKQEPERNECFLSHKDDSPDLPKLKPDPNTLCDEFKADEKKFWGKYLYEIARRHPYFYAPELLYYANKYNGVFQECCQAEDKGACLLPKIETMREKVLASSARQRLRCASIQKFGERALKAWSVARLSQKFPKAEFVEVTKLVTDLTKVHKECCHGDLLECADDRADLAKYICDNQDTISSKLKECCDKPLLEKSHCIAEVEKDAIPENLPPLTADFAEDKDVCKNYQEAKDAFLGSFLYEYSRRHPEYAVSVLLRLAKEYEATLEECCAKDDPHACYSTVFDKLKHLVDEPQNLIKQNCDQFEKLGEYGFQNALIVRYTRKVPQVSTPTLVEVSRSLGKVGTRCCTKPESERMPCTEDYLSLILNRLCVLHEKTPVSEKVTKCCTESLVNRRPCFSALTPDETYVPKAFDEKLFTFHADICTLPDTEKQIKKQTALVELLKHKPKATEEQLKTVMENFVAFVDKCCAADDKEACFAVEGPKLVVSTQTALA

Compound: O=C(/C=C/c1ccc(O)c(O)c1)O[C@H](Cc1ccc(O)c(O)c1)C(=O)O [rosmarinic acid]
association constant (K) [1]: ~10^7 M^−1

Compound: O=c1c(O)c(-c2ccc(O)cc2O)oc2cc(O)cc(O)c12 [morin, 3,5,7,2′,4′-pentahydroxyflavone]
pKd [2]: 5.27
number of binding sites (n) ([2]; BSA fluorescence quenching): 1.10 ± 0.02
bimolecular quenching rate constant (kq) [2, 10]: 1.76 × 10^13 ± 0.02 L mol^−1 s^−1
binding constant (Ka) [2, 10]: 187000 L/mol
Stern–Volmer quenching constant (Ksv) [2, 10]: 1.76 × 10^5 ± 0.03 L mol^−1
ΔH° [2, 11]: –28.7 kJ·mol^−1
ΔS° [2, 11]: 4.75 J·mol^−1·K^−1
ΔG° [2, 11]: approximately –30.1 kJ·mol^−1
pKd [3]: 3.55
initial morin concentration retained ([4]; UV exposure with hydrogen peroxide, 10 min, 2 µM BSA, pH 7.4): 79%
morin concentration remaining ([4]; UV exposure with hydrogen peroxide, 10 min, absence of BSA, pH 7.4): 61.5%
initial morin concentration remaining ([4]; UV photolysis, 10 min, absence of BSA, phosphate buffer pH 7.4): 94.9%
improvement in morin retention compared to the system without BSA ([4]; photooxidation 10 min, 2 µM BSA): 17.5%
effect on BSA secondary structure (CD ellipticity at 208 and 222 nm) [5]: no significant loss of α-helical structure
%EE of morin ([6]; BSA nanoparticles co-loaded with both ellagic acid and tocopherol succinate): 80%
%EE of morin ([6]; BSA nanoparticles co-loaded with ellagic acid): 76%
%EE of morin ([6]; BSA nanoparticles co-loaded with tocopherol succinate): 72.6%
%EE of morin ([6]; encapsulated alone in BSA nanoparticles (comparison with coumestrol co-loading)): 20.5% ± 3.0%
%EE ([6]; initial [Morin] 0.128 mM): 25.97 ± 4.29%
Morin/BSA molar ratio ([6]; initial [Morin] 0.128 mM): 0.30 ± 0.05
%EE ([6]; initial [Morin] 0.222 mM): 20.42 ± 0.67%
Morin/BSA molar ratio ([6]; initial [Morin] 0.222 mM): 0.48 ± 0.02
%EE ([6]; initial [Morin] 0.308 mM): 19.31 ± 0.42%
Morin/BSA molar ratio ([6]; initial [Morin] 0.308 mM): 0.68 ± 0.01
%EE ([6]; initial [Morin] 0.507 mM): 20.99 ± 0.27%
Morin/BSA molar ratio ([6]; initial [Morin] 0.507 mM): 0.98 ± 0.01
Morin/BSA molar ratio ([6]; initial [Morin] 0.634 mM): 1.01 ± 0.04
%EE ([6]; initial [Morin] 1.478 mM): 18.94 ± 0.85%
Morin/BSA molar ratio ([6]; initial [Morin] 1.478 mM): 1.48 ± 0.07
encapsulation efficiencies (maximum) ([6]; morin in BSA nanoparticles prepared by desolvation): up to 26%
extended release ([7]; 72 h, pH 7.4): up to 80%
initial 6 h release ([7]; stated for both this study (SIF) and the literature study (pH 7.4)): < 40%

Compound: O=c1c(-c2ccc(O)cc2)coc2cc(O[C@@H]3O[C@H](CO)[C@@H](O)[C@H](O)[C@H]3O)cc(O)c12 [genistin]
number of binding sites (n) ([2]; BSA fluorescence quenching): 0.94 ± 0.01
bimolecular quenching rate constant (kq) [2, 10]: 3.66 × 10^12 ± 0.04 L mol^−1 s^−1
Stern–Volmer quenching constant (Ksv) [2, 10]: 3.66 × 10^4 ± 0.05 L mol^−1
ΔG° [2, 11]: –26.9 kJ·mol^−1
Kd [2]: 29.5 µM

Compound: O=c1c(O)c(-c2ccc(O)c(O)c2)oc2cc(O)ccc12 [fisetin]
average particle size [9, 12]: 200 ± 8 nm
encapsulation efficiency [9, 12]: 84%

Further lines, with some results ahead:

number of binding sites (n) ([2]; BSA fluorescence quenching): 1.13 ± 0.02
bimolecular quenching rate constant (kq) [2, 10]: 1.88 × 10^13 ±0.03 L mol^−1 s^−1
Stern–Volmer quenching constant (Ksv) [2, 10]: 1.88 × 10^5 ± 0.02 L mol^−1
Compound: O=c1c(O)c(-c2ccc(O)c(O)c2)oc2cc(O)cc(O)c12 [quercetin]

encapsulation efficiency of coumestrol [8]: 22.4% ± 0.1%
Compound: O=c1oc2cc(O)ccc2c2oc3cc(O)ccc3c12 [coumestrol]
encapsulation efficiency in BSA nanoparticles ([9]; previous studies): 22.4% ± 0.1%

pKd [2]: 4.94
number of binding sites (n) ([2]; BSA fluorescence quenching): 1.22 ± 0.04
bimolecular quenching rate constant (kq) [2, 10]: 8.11 × 10^12 ± 0.04 L mol^−1 s^−1
Stern–Volmer quenching constant (Ksv) [2, 10]: 8.11 × 10^4 ± 0.02 L mol^−1
Compound: O=c1c(-c2ccc(O)cc2)coc2cc(O)cc(O)c12 [genistein]

number of binding sites (n) ([2]; BSA fluorescence quenching): 1.33 ± 0.03
bimolecular quenching rate constant (kq) [2, 10]: 2.23 × 10^13 ± 0.02 L mol^−1 s^−1
Stern–Volmer quenching constant (Ksv) [2, 10]: 2.23 × 10^5 ± 0.03 L mol^−1
Kd [2]: 5.99 µM
Compound: O=c1c(O)c(-c2ccc(O)cc2)oc2cc(O)cc(O)c12 [kaempferol]
